# From PMC8910009, “Identification of Novel and Potent Indole-Based Benzenesulfonamides as Selective Human Carbonic Anhydrase II Inhibitors: Design, Synthesis, In Vitro, and In Silico Studies” (International Journal of Molecular Sciences, 2022)
# Experiments:
# hCA XII = hCA XII (Homo sapiens, UniProt O43570); assay: stopped flow CO2 hydrase assay, hCA XII
# Protocol: (§1) The tested CA panel was comprised of the two ubiquitously expressed cytosolic hCA I and II isoforms, along with the two tumor-related transmembrane hCA IX and XII isoforms. The activity of the synthesized hybrids was reported as Ki (inhibition constant) to assess their binding affinity. […] The inhibitor and enzyme solutions were first preincubated together for 15 min at room temperature to enable for the generation of the E–I complex. Photophysics stopped-flow instrument was used to measure the CA-catalyzed CO2 hydration activity. Phenol red (at a concentration of 0.2 mM) was added as an indicator after a period of 10–100 s in the CA-catalyzed CO2 hydration reaction at an absorbance maximum of 557 nm, with 20 mM Hepes (pH = 7.4) and 10 mM NaClO4 (to maintain constant ionic strength) [30]. […] In the initial 5–10% of the reaction, at least six traces were examined to determine the initial velocity for each inhibitor. Similarly, the total measured rates were used to measure the uncatalyzed rates [32]. Distilled–deionized water was used in the preparation of the Stock inhibitor solutions (10 mM), as well as dilutions up to 0.01 nM. The inhibition constants were measured utilizing PRISM 3, whereas the Lineweaver–Burk plots were used to measure the kinetic parameters which comprised the mean of at least three separate measurements [33, 34].
# hCA IX = hCA IX (Homo sapiens, UniProt Q16790); assay: stopped flow CO2 hydrase assay, hCA IX
# Protocol: as §1
# hCA II = hCA II (Homo sapiens, UniProt P00918); assay: stopped flow CO2 hydrase assay, hCA II
# Protocol: as §1
# hCA I = hCA I (Homo sapiens, UniProt P00915); assay: stopped flow CO2 hydrase assay, hCA I
# hCA I, sequence (P00915 whole entry): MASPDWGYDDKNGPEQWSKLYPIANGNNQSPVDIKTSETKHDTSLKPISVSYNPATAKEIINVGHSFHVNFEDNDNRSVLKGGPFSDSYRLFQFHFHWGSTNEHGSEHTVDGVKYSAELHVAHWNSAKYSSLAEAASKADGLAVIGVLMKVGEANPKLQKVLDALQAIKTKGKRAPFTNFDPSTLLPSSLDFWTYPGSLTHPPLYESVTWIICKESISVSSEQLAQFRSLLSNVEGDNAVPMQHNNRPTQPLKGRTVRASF
# Protocol: as §1
# hCA XII, sequence (O43570 25-354): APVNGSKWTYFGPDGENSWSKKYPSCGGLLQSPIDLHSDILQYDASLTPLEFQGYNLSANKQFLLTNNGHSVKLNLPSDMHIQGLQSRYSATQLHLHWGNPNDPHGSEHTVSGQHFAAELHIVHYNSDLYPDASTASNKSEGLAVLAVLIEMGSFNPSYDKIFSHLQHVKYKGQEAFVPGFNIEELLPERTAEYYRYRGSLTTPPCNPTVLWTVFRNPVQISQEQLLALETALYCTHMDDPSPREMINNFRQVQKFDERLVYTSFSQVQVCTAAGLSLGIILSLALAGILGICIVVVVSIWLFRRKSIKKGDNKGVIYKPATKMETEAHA
Ki (hCA XII),Ki (hCA IX),Ki (hCA II),selectivity for hCA II over hCA I (hCA II; ratio of Ki values),selectivity for hCA II over hCA IX (hCA II; ratio of Ki values),selectivity for hCA II over hCA XII (hCA II; ratio of Ki values),Ki (hCA I),Compound
54.2 nM,206 nM,5.9 nM,13 fold,34 fold,9 fold,79.8 nM,"NS(=O)(=O)c1cccc(NC(=O)CCc2c[nH]c3ccccc23)c1 [Compound 2a, 3-(1H-indol-3-yl)-N-(3-sulfamoylphenyl)propanamide]"
85.1 nM,286 nM,7.3 nM,,,,2800 nM,"NS(=O)(=O)c1ccc(O)c(NC(=O)CCc2c[nH]c3ccccc23)c1 [Compound 2b, N-(2-hydroxy-5-sulfamoylphenyl)-3-(1H-indol-3-yl)propanamide]"
36.9 nM,222 nM,9 nM,,,,217 nM,"NS(=O)(=O)c1ccc(CCNC(=O)CCc2c[nH]c3ccccc23)cc1 [Compound 2c, 3-(1H-indol-3-yl)-N-(4-sulfamoylphenethyl)propanamide]"
42.2 nM,166 nM,7.1 nM,,,,97.6 nM,"NS(=O)(=O)c1ccc(NC(=O)CCc2c[nH]c3ccccc23)cc1 [Compound 2d, 3-(1H-indol-3-yl)-N-(4-sulfamoylphenyl)propanamide]"
90.9 nM,766 nM,45.5 nM,,,,5570 nM,"NS(=O)(=O)c1cccc(NC(=O)c2ccc3[nH]ccc3c2)c1 [Compound 2e, N-(3-sulfamoylphenyl)-1H-indole-5-carboxamide]"
257 nM,165 nM,16 nM,,,,3110 nM,"NS(=O)(=O)c1ccc(NC(=O)c2ccc3[nH]ccc3c2)cc1 [Compound 2f, N-(4-sulfamoylphenyl)-1H-indole-5-carboxamide]"
85.3 nM,280 nM,680 nM,,,,4770 nM,"NS(=O)(=O)c1ccc(O)c(NC(=O)c2ccc3[nH]ccc3c2)c1 [Compound 2g, N-(2-hydroxy-5-sulfamoylphenyl)-1H-indole-5-carboxamide]"
236 nM,240 nM,8.6 nM,,,,554 nM,"NS(=O)(=O)c1ccc(CCNC(=O)c2ccc3[nH]ccc3c2)cc1 [Compound 2h, N-(4-sulfamoylphenethyl)-1H-indole-5-carboxamide]"
89.4 nM,635 nM,71.9 nM,,,,7450 nM,"NS(=O)(=O)c1ccccc1NC(=O)c1ccc2[nH]ccc2c1 [Compound 2i, N-(2-sulfamoylphenyl)-1H-indole-5-carboxamide]"
40.5 nM,654 nM,94.8 nM,,,,5400 nM,"NS(=O)(=O)c1cccc(NC(=O)c2ccc3cc[nH]c3c2)c1 [Compound 2j, N-(3-sulfamoylphenyl)-1H-indole-6-carboxamide]"
83.8 nM,428 nM,833 nM,,,,4660 nM,"NS(=O)(=O)c1ccc(NC(=O)c2ccc3cc[nH]c3c2)cc1 [Compound 2k, N-(4-sulfamoylphenyl)-1H-indole-6-carboxamide]"
73.7 nM,423 nM,682 nM,,,,4280 nM,"NS(=O)(=O)c1ccc(O)c(NC(=O)c2ccc3cc[nH]c3c2)c1 [Compound 2l, N-(2-hydroxy-5-sulfamoylphenyl)-1H-indole-6-carboxamide]"
85.1 nM,278 nM,38.8 nM,,,,253 nM,"NS(=O)(=O)c1ccc(CCNC(=O)c2ccc3cc[nH]c3c2)cc1 [Compound 2m, N-(4-sulfamoylphenethyl)-1H-indole-6-carboxamide]"
36.9 nM,487 nM,670 nM,,,,7510 nM,"NS(=O)(=O)c1ccccc1NC(=O)c1ccc2cc[nH]c2c1 [Compound 2n, N-(2-sulfamoylphenyl)-1H-indole-6-carboxamide]"
66.9 nM,170 nM,7.5 nM,,,,56.6 nM,"NS(=O)(=O)c1ccc(C(=O)Nc2ccc3[nH]ccc3c2)cc1 [Compound 2o, N-(1H-indol-5-yl)-4-sulfamoylbenzamide]"
